Biological target: T1, ligand binding domain of human ROR gamma (Homo sapiens, UniProt P51449)
T1 construct: NM_001001523; expressed in transfected cells; host or cells: HEK293T
T1 sequence (P51449 247-497 isoform P51449-2): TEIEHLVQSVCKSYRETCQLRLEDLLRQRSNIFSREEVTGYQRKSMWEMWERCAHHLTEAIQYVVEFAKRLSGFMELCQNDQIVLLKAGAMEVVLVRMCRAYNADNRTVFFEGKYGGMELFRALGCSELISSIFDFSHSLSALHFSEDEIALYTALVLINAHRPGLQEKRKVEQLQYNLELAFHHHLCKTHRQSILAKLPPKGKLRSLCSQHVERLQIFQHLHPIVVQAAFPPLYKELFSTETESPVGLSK
Assay: ROR gamma reporter gene assay (GAL4-RORγ LBD luciferase, Dual-Glo)
Format: cell-based
Details: HEK293T cells transfected with pM-ROR gamma, 8 concentrations 3.5 nM to 10.5 μM, 24 h incubation; read-out: result (pIC50, inhibition of RORγ transcriptional activity) (converted)
Procedure, shortened: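 HEK293T cells co-transfected with GAL4-DBD fused to human RORγ LBD (aa 247-497), 5×UAS firefly luciferase reporter and CMV-renilla, in charcoal-stripped serum.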

**Q.** CC(C)(C)[C@@H]1C[C@H]1N(CC(=O)c1c(Cl)cncc1Cl)C(=O)c1cnn([C@H]2CC[C@](C)(C(=O)O)CC2)c1C(F)(F)F [Example 331, trans-4-(4-(((1R,2S)-2-tert-butylcyclopropyl)-(2-(3,5-dichloropyridin-4-yl)-2-oxoethyl)carbamoyl)-5-(trifluoromethyl)pyrazol-1-yl)-1-methylcyclohexane-1-carboxylic acid] was tested. Which IC50 did it give?
**A.** Its IC50 is 102000 pM.

**Q.** CC(COC(C)(C)C)N(CC(=O)c1c(Cl)cncc1Cl)C(=O)c1cnn([C@H]2CC[C@](C)(C(=O)O)CC2)c1C(F)(F)F (stereo partly drawn) [Example 332, trans-4-(4-((2-(3,5-dichloropyridin-4-yl)-2-oxoethyl)-(1-((2-methylpropan-2-yl)oxy)propan-2-yl)carbamoyl)-5-(trifluoromethyl)pyrazol-1-yl)-1-methylcyclohexane-1-carboxylic acid] was tested. Which IC50 did it give?
**A.** Its IC50 is 513000 pM.

**Q.** With CC1(C)[C@@H]2C[C@H](N(CC(=O)c3c(F)cncc3Cl)C(=O)c3cnn([C@H]4CC[C@](C)(C(=O)O)CC4)c3C(F)(F)F)C[C@@H]21 [Example 333, trans-4-(4-((2-(3-chloro-5-fluoropyridin-4-yl)-2-oxoethyl)((1R,3r,5S)-6,6-dimethylbicyclo[3.1.0]hexan-3-yl)carbamoyl)-5-(trifluoromethyl)-1H-pyrazol-1-yl)-1-methylcyclohexanecarboxylic acid] as the compound, how does the IC50 read?
**A.** The IC50 was 17000 pM.

**Q.** CC(C)(C)CN(CCc1c[nH]c2cccc(Cl)c12)C(=O)c1cnn([C@H]2CC[C@](C)(C(=O)O)CC2)c1C(F)(F)F [Example 334, trans-4-(4-(2-(4-chloro-1H-indol-3-yl)ethyl-(2,2-dimethylpropyl)carbamoyl)-5-(trifluoromethyl)pyrazol-1-yl)-1-methylcyclohexane-1-carboxylic acid] was tested. Which IC50 did it give?
**A.** Its IC50 is 56200 pM.

**Q.** With CC1(C)[C@@H]2C[C@H](N(CC(=O)c3c(F)cncc3Cl)C(=O)c3cnn(C45CCC(C(=O)O)(CC4)CC5)c3C(F)(F)F)C[C@@H]21 [Example 335, 4-(4-((2-(3-chloro-5-fluoropyridin-4-yl)-2-oxoethyl)((1R,3r,5S)-6,6-dimethylbicyclo[3.1.0]hexan-3-yl)carbamoyl)-5-(trifluoromethyl)-1H-pyrazol-1-yl)bicyclo(2.2.2)octane-1-carboxylic acid] as the compound, how does the IC50 read?
**A.** Its IC50 is 12300 pM.

**Q.** COc1cccc(Cl)c1C(O)CN(C(=O)c1cnn([C@H]2CC[C@](C)(C(=O)O)CC2)c1C(F)(F)F)C1CCC(C)(C)CC1 (stereo partly drawn) [Example 336, trans-4-(4-((2-(2-chloro-6-methoxyphenyl)-2-hydroxyethyl)-(4,4-dimethylcyclohexyl)carbamoyl)-5-(trifluoromethyl)pyrazol-1-yl)-1-methylcyclohexane-1-carboxylic acid] was tested. Which IC50 did it give?
**A.** The IC50 was 145000 pM.

**Q.** For CC1(C)CCC(N(CC(=O)c2c(Cl)cc(F)cc2Cl)C(=O)c2cnn([C@H]3C[C@](C)(C(=O)O)C3)c2C(F)(F)F)CC1 [Example 339, trans-3-(4-((2-(2,6-dichloro-4-fluorophenyl)-2-oxoethyl)-(4,4-dimethylcyclohexyl)carbamoyl)-5-(trifluoromethyl)pyrazol-1-yl)-1-methylcyclobutane-1-carboxylic acid], which IC50 is on record?
**A.** The IC50 was 83200 pM.

**Q.** How did the IC50 turn out when CC(C)[C@@H]1C[C@@H]1N(CC(=O)c1c(Cl)cncc1Cl)C(=O)c1cnn([C@H]2CC[C@](C)(C(=O)O)CC2)c1C(F)(F)F [Example 340, trans-4-(4-((2-(3,5-dichloropyridin-4-yl)-2-oxoethyl)-((1S,2S)-2-propan-2-ylcyclopropyl)carbamoyl)-5-(trifluoromethyl)pyrazol-1-yl)-1-methylcyclohexane-1-carboxylic acid] was run?
**A.** The IC50 was 123000 pM.

**Q.** Which IC50 does the source give for COc1cccc(Cl)c1[C@@H](O)CN(C(=O)c1cnn([C@H]2CC[C@](C)(C(=O)O)CC2)c1C(F)(F)F)[C@H]1C[C@@H]2[C@H](C1)C2(C)C [Example 341, trans-4-(4-((2-(2-chloro-6-methoxyphenyl)-2-hydroxyethyl)((1R,3r,5S)-6,6-dimethylbicyclo[3.1.0]hexan-3-yl)carbamoyl)-5-(trifluoromethyl)-1H-pyrazol-1-yl)-1-methylcyclohexanecarboxylic acid] here?
**A.** Its IC50 is 759000 pM.

**Q.** With COc1cccc(Cl)c1[C@H](O)CN(C(=O)c1cnn([C@H]2CC[C@](C)(C(=O)O)CC2)c1C(F)(F)F)[C@H]1C[C@@H]2[C@H](C1)C2(C)C [Example 342, trans-4-(4-((2-(2-chloro-6-methoxyphenyl)-2-hydroxyethyl)((1R,3r,5S)-6,6-dimethylbicyclo[3.1.0]hexan-3-yl)carbamoyl)-5-(trifluoromethyl)-1H-pyrazol-1-yl)-1-methylcyclohexanecarboxylic acid] as the compound, how does the IC50 read?
**A.** The IC50 was 45700 pM.

**Q.** CC1(C)[C@@H]2C[C@H](N(CCc3c[nH]c4cccc(Cl)c34)C(=O)c3cnn([C@H]4CC[C@](C)(C(=O)O)CC4)c3C(F)(F)F)C[C@@H]21 [Example 343, trans-4-(4-((2-(4-chloro-1H-indol-3-yl)ethyl)((1R,3r,5S)-6,6-dimethylbicyclo[3.1.0]hexan-3-yl)carbamoyl)-5-(trifluoromethyl)-1H-pyrazol-1-yl)-1-methylcyclohex anecarboxylic acid] was tested. Which IC50 did it give?
**A.** Its IC50 is 31600 pM.

**Q.** Which IC50 does the source give for CC(C)(C)OC1CC(CN(CC(=O)c2c(Cl)cncc2Cl)C(=O)c2cnn([C@H]3CC[C@](C)(C(=O)O)CC3)c2C(F)(F)F)C1 (stereo partly drawn) [Example 344, trans-4-(4-((2-(3,5-dichloropyridin-4-yl)-2-oxoethyl)-((3-((2-methylpropan-2-yl)oxy)cyclobutyl)methyl)carbamoyl)-5-(trifluoromethyl)pyrazol-1-yl)-1-methylcyclohexane-1-carboxylic acid] here?
**A.** Its IC50 is 1.58e+06 pM.

**Q.** For CC1(C)CCC(N(CC(=O)c2c(Cl)cc(F)cc2Cl)C(=O)c2cnn([C@H]3CC[C@](C)(C(=O)O)CC3)c2Cl)CC1 [Example 345, trans-4-(5-chloro-4-((2-(2,6-dichloro-4-fluorophenyl)-2-oxoethyl)-(4,4-dimethylcyclohexyl)carbamoyl)pyrazol-1-yl)-1-methylcyclohexane-1-carboxylic acid], which IC50 is on record?
**A.** Its IC50 is 26300 pM.

**Q.** CC(C)[C@H]1C[C@@H]1N(CC(=O)c1c(Cl)cncc1Cl)C(=O)c1cnn([C@H]2CC[C@](C)(C(=O)O)CC2)c1C(F)(F)F [Example 346, trans-4-(4-((2-(3,5-dichloropyridin-4-yl)-2-oxoethyl)-((1S,2R)-2-propan-2-ylcyclopropyl)carbamoyl)-5-(trifluoromethyl)pyrazol-1-yl)-1-methylcyclohexane-1-carboxylic acid] was tested. Which IC50 did it give?
**A.** The IC50 was 110000 pM.

**Q.** For CC(C)c1c(C(=O)N(CC(=O)c2c(Cl)cc(F)cc2Cl)C2CCC(C)(C)CC2)cnn1[C@H]1CC[C@](C)(C(=O)O)CC1 [Example 347, trans-4-(4-((2-(2,6-dichloro-4-fluorophenyl)-2-oxoethyl)-(4,4-dimethylcyclohexyl)carbamoyl)-5-propan-2-ylpyrazol-1-yl)-1-methylcyclohexane-1-carboxylic acid], which IC50 is on record?
**A.** The IC50 was 871000 pM.

**Q.** With CC(C)(C)SCCN(CC(=O)c1c(Cl)cc(F)cc1Cl)C(=O)c1cnn([C@H]2CC[C@](C)(C(=O)O)CC2)c1C(F)(F)F [Example 348, trans-4-(4-(2-tert-butylsulfanylethyl-(2-(2,6-dichloro-4-fluorophenyl)-2-oxoethyl)carbamoyl)-5-(trifluoromethyl)pyrazol-1-yl)-1-methylcyclohexane-1-carboxylic acid] as the compound, how does the IC50 read?
**A.** The IC50 was 155000 pM.
